Columns and labels:
hippocampal neurons = assay: Glutamate-triggered neuronal cell death in hippocampal neurons; type: cell-based; settings: in vitro
Experimental: To examine whether test compounds can promote neuronal survival, hippocampal neurons can be prepared, and the primary neurons pre-treated with various test compounds for a period of time, for example, 30 min, followed by 50 μM glutamate treatment for a period of time, for example, 16 h.
TrkA is highly expressed in hippocampal neurons (Culmsee et al., 2002; Kume et al., 2000; Zhang et al., 1993). […] To examine whether these compounds can promote neuronal survival, one can prepare hippocampal neurons and pre-treat the primary neurons with various gambogic amine derivatives for 30 min, followed by 50 μM glutamate treatment for 16 h.

hippocampus = assay: Kainic acid-elicited neuronal cell death in mouse brain (TUNEL, hippocampus); type: in vivo, C57BL/6 mice; settings: mouse brain
From the text: Kainic acid (KA) is a potent agonist for the AMPA receptor. Peripheral injections of KA result in recurrent seizures and the subsequent degeneration of select populations of neurons in the hippocampus (Nadler et al., 1980; Schauwecker and Steward, 1997; Sperk et al., 1983). It has been shown that the activation of caspase-3 is a necessary component of KA-induced cell death (Faherty et al., 1999). To explore whether test compounds can block the neurotoxicity initiated by KA, the compounds can be subcutaneously injected (for example, at a concentration of 2 mg/kg) into C57BL/6 mice, followed by 25 mg/kg KA. In 5 days, the mice can be perfused and the brains cut to a thickness of 5 μm and mounted on slides.
Kainic acid (KA) is a potent agonist for the AMPA receptor. Peripheral injections of KA result in recurrent seizures and the subsequent degeneration of select populations of neurons in the hippocampus (Nadler et al., 1980; Schauwecker and Steward, 1997; Sperk et al., 1983). It has been shown that the activation of caspase-3 is a necessary component of KA-induced cell death (Faherty et al., 1999). To explore whether gambogic amines can block the neurotoxicity initiated by KA, one can subcutaneously inject 2 mg/kg of a gambogic amine into C57BL/6 mice, followed by 25 mg/kg KA. In 5 days, the mice can be perfused and the brains were cut to a thickness of 5 μm and mounted on slides. TUNEL staining can reveal whether KA provokes enormous apoptosis in the hippocampus, and whether this effect is substantially diminished by the gambogic amine.
Male C57BL/6 mice aged of 60 days can be injected subcutaneously (s.c.) with a single dose of either 30% ethanol in saline or KA (25 mg/kg) (Sigma, Mo.) or the gambogic amine (2 mg/kg) followed by KA. Animals can be continually monitored for 2 h for the onset of seizure activity. At 5 days following treatment, animals can be anesthetized and perfused with 4% paraformaldehyde in 0.1 M phosphate buffered saline. Brains can be removed, post-fixed overnight and processed for paraffin embedding. […]

SMILES: CC(C)=CCC[C@]1(C)C=Cc2c(O)c3c(c(CC=C(C)C)c2O1)O[C@]12C(=C[C@@H]4CC1C(C)(C)O[C@@]2(C/C=C(/C)C(N)=O)C4=O)C3=O [gambogic amide]
- protection of hippocampal neurons from glutamate-triggered neuronal cell death (hippocampal neurons): potent neurotrophic effects
- block of kainic acid-elicited neuronal cell death in mouse brain (hippocampus): strongly block
